Results from patent US20220305003A1, “METHODS OF TREATING CANCER WITH AN INHIBITOR OF ZNF827” (CHILDREN'S MEDICAL RESEARCH INSTITUTE, priority 2019, published 2022).

System: ATR-CHK1 pathway
Experiment: Western blot of ATR downstream effectors (p-CHK1 S345, p-RPA2 S33, pCHK2)
Format: cell-based
Details: U-2 OS; agent alone (topotecan 2 μg/mL 24 hours, aphidicolin 1 μM 20 hours, or siRNA knockdown in unchallenged cells)
Procedure: Protein was extracted from 10^6 cells per sample by vigorous pipetting and incubation at room temperature for 30 minutes in 100 μL of EDTA-free 4× LDS buffer (106 mM Tris-Cl, 141 mM Tris-Base, 40% Glycerol, 2% LDS, 0.075% SERVA Blue G50) supplemented with 2.5% Benzonase® nuclease 25 U/μL (Novagen, Merck Millipore) and 2% beta-mercaptoethanol (Sigma). Following protein extraction, all samples were denatured at 90° C. for 15 minutes before resolving on NuPAGE® Novex® 4-12% Bis-Tris Mini Gels (Invitrogen) with 1×10^5 cells (10 μL) loaded per lane in NuPAGE® MES SDS running buffer (Invitrogen) at 200 V for 50 minutes. Gels were transferred onto a PVDF membrane (Immobilon-P, Millipore) in transfer buffer (190 mM glycine, 25 mM Tris and 10% methanol) at 100 V for 60 minutes. Membranes were stained with Ponceau-S for 30 minutes, de-stained then blocked for 1 hour at room temperature in 5% skim milk dissolved in PBS with 0.1% Tween-20 (PBST) or TBS with 0.1% Tween-20 (TBST) for phosphorylated proteins. Membranes were cut into appropriate segments based on the size markers, with each segment incubated with antibodies for proteins of interest diluted in 0.5% skim milk in PBST/TBST or 5% BSA overnight at 4° C. (Refer to Table 4 for the list of antibodies). Blots were then washed for 3×5 minutes in PBST/TBST followed by incubation for 1 hour at room temperature with appropriate secondary antibodies (See Table 5) diluted 1:5000 in 0.5% skim milk or 5% BSA in PBST/TBST. Blots were washed for 3×5 minutes in PBST/TBST before incubation with SuperSignal West Pico Chemiluminescent Substrate (ThermoFisher Scientific) for 5 minutes at room temperature. Blots were then exposed to a Luminescent Image Analyser (LAS-4000, Fujifilm).
To investigate the precise function of ZNF827 in the ATR pathway, the effect of ZNF827 depletion on the downstream effectors of ATR was examined. To activate ATR, U-2 OS cells were treated with DNA damage and replication stress inducing agents topotecan 2 μg/mL for 24 hours or aphidicolin 1 μM for 20 hours. […] Phosphorylation of CHK2 was not affected by ZNF827 depletion, further supporting that the role of ZNF827 in DNA damage and repair is independent of ATM (FIG. 6d).

Row | Compound | phosphorylation of CHK1 S345
1 | C[C@@]1(CO)[C@H](O)CC[C@@]2(C)[C@H]1CC[C@H]1C[C@@H]3C[C@@]12CC[C@]3(O)CO [aphidicolin] | became phosphorylated at S345

System: panel of 660 cell lines
Experiment: Drug sensitivity (Sanger GDSC IC50) versus ZNF827 gene expression
Format: cell-based
Details: natural log of the IC50 from Sanger GDSC v17.3; low log2(TPM) <1 vs normal; Nemenyi test, adjusted p-value<0.05
Procedure: ZNF827 gene expression for the 660 cell lines was plotted on a histogram and grouped by gene expression level, represented as log2(TPM), into “low” (<1), “normal” (>1, <5) and “high” (>5). […] The Nemenyi statistical test was used to test for significant differences between “low” and “normal” ZNF827 expression groups for drug sensitivity for each compound. P-values were then corrected for multiple testing using FDR correction. […] All statistical analysis was performed in R (version 3.6.0), using the “stats” (version 3.6.0) and “PMCMR” (version 4.3) libraries.

Row | Compound | drug sensitivity in cell lines with low ZNF827 compared to cell lines with normal ZNF827 expression
2 | O=c1[nH]c2ccccc2n1C1CCN(Cc2ccc(-c3nc4cc5[nH]cnc5cc4nc3-c3ccccc3)cc2)CC1 [AKT inhibitor VIII] | Increased sensitivity
3 | Cc1ccc(NC(=O)c2cccc(C(C)(C)C#N)c2)cc1Nc1ccc2ncn(C)c(=O)c2c1 [AZ628] | Increased sensitivity
4 | C=C(c1ccc(C(=O)O)cc1)c1cc2c(cc1C)C(C)(C)CCC2(C)C [Bexarotene] | Increased sensitivity
5 | O=C(NOCC1CC1)c1ccc(F)c(F)c1Nc1ccc(I)cc1Cl [CI-1040] | Increased sensitivity
6 | Cc1ccc(-c2c(C(=O)CF)n(CCCO)c3ncnc(N)c23)cc1 [FMK] | Increased sensitivity
7 | Nc1[nH]nc2nnc(-c3c(-c4ccccc4)nn4ccccc34)cc12 [FR-180204] | Increased sensitivity
8 | Cn1cc(/C=C2\C(=O)Nc3cccnc32)c2ccccc21 [GW441756] | Increased sensitivity
9 | CCNC(=O)C[C@@H]1N=C(c2ccc(Cl)cc2)c2cc(OC)ccc2-n2c(C)nnc21 [I-BET-762] | Increased sensitivity
10 | Cc1ccc(NC(=O)c2ccc(CN3CCN(C)CC3)cc2)cc1Nc1nccc(-c2cccnc2)n1 [Imatinib] | Increased sensitivity
11 | O=C(N[C@@H](COc1ccc2[nH]c(=O)[nH]c2c1)c1ccccc1)c1cccn(Cc2ccc(F)c(F)c2)c1=O [KIN001-244] | Increased sensitivity
12 | COc1cc(C(=O)NC2CCN(C)CC2)ccc1Nc1ncc2c(n1)N(C1CCCC1)C(C)CC(=O)N2C (centres unmarked) [NPK76-II-72-1] | Increased sensitivity
13 | Cc1ccc(C(=O)Nc2cccc(C(F)(F)F)c2)cc1Nc1nc(-c2cccnc2)nc2c1cnn2C [NVP-BHG712] | Increased sensitivity
14 | Cc1cn(-c2cc(NC(=O)c3ccc(C)c(Nc4nccc(-c5cccnc5)n4)c3)cc(C(F)(F)F)c2)cn1 [Nilotinib] | Increased sensitivity
15 | O=C(Nc1ccc(OC(F)(F)F)cc1)c1sccc1NCc1ccnc2ccccc12 [OSI-930] | Increased sensitivity
16 | O=C(NOC[C@H](O)CO)c1ccc(F)c(F)c1Nc1ccc(I)cc1F [PD0325901] | Increased sensitivity
17 | [H]/N=C(/N)N/C(=N/[H])NCCc1ccccc1 [Phenformin] | Increased sensitivity

Row | Compound | drug sensitivity in cell lines with low ZNF827 compared to cell lines with normal ZNF827 expression
18 | CC1(C)CC(=O)c2c(C(F)(F)F)nn(-c3ccc(C(N)=O)c(N[C@H]4CC[C@H](O)CC4)c3)c2C1 [SNX-2112] | Increased sensitivity
19 | CCN(CC)CCNC(=O)c1c(C)[nH]c(/C=C2\C(=O)Nc3ccc(F)cc32)c1C.O=C(O)C[C@H](O)C(=O)O [Sunitib] | Increased sensitivity
20 | O=S(=O)(c1ccccc1)N(CC(F)(F)F)c1ccc(C(O)(C(F)(F)F)C(F)(F)F)cc1 [T0901317] | Increased sensitivity
21 | CCc1nc(-c2cccc(C)c2)c(-c2ccnc(NC(=O)c3ccccc3)c2)s1 [TAK-715] | Increased sensitivity
22 | CN(C)C/C=C/C(=O)Nc1ccc(C(=O)Nc2cccc(Nc3ncc(Cl)c(-c4c[nH]c5ccccc45)n3)c2)cc1 [THZ-2-102-1] | Increased sensitivity
23 | CC/C(=C(\c1ccccc1)c1ccc(OCCN(C)C)cc1)c1ccccc1 [Tamoxifen] | Increased sensitivity
24 | CC1=C(/C=C/C(C)=C/C=C/C(C)=C/C(=O)O)C(C)(C)CCC1 [Tretinoin] | Increased sensitivity
25 | CCCC(=O)OCc1ccc(OC(=O)/C=C(C)/C=C/C=C(C)/C=C/C2=C(C)CCCC2(C)C)cc1 [VNLG-124] | Increased sensitivity
26 | NC(=O)c1ccc(N(C(N)=O)c2c(F)cccc2F)nc1-c1ccc(F)cc1F [VX-702] | Increased sensitivity
27 | O=C(CCCCCCC(=O)Nc1ccccc1)NO [Vorinostat] | Increased sensitivity
28 | KIN001-236 | Increased sensitivity
29 | KIN001-260 | Increased sensitivity
30 | THZ-2-49 | Increased sensitivity
31 | TL-1-85 | Increased sensitivity
32 | TL-2-105 | Increased sensitivity
